Measured values published in EP0560267B1, “Isosteric antiherpes peptide derivatives” (BOEHRINGER INGELHEIM (CANADA) LTD., priority 1992, dated 1993).
Like-named read-outs stand apart in the source and are kept apart here.

Assays:
HSV-2 = assay: Inhibition of Herpes Simplex Virus (HSV-2) replication in cell culture; format: cell-based
Description: Inhibition of Herpes Simplex Virus (HSV-2) Replication in Cell Culture
BHK-21/C13 cells (ATCC CCL 10) are incubated for two days in 150 cm^2 T-flasks (1.5 x 10^6 cells/flask) with alpha-MEM medium (Gibco Canada Inc., Burlington, Ontario, Canada) supplemented with 8% (v/v) fetal bovine serum (FBS, Gibco Canada Inc.). The cells are trypsinized and then transferred to fresh media in a 24 well plate to give 2.5 x 10^5 cells in 750 µL of media per well. The cells are incubated at 37° for a period of 6 h to allow them to adhere to the plate. Thereafter, the cells are washed once with 500 µL of alpha-MEM supplemented with 0.5% (v/v) FBS and then incubated with 750 µL of the same media (low serum) for 3 days. After this period of serum starvation, the low serum medium is removed and the cells are incubated in 500 µL of BBMT for 2 to 3 hours. {BBMT medium is described by P. Brazeau et al., Proc. Natl. Acad. Sci. USA, 79, 7909 (1982).} Thereafter, the cells are infected with HSV-2 (multiplicity of infection = 0.02 PFU/cell) in 100 µL of BBMT medium. (Note: The HSV-2 used was strain HG-52, see Y. Langelier and G. Buttin, J. Gen. Virol., 57, 21 (1981); the virus was stored at -80°.) Following 1 h of virus adsorption at 37°, the media is removed and the cells are washed with BBMT (3 X 250 µL). The cells in each well are incubated with or without (control) appropriate concentrations of the test agent dissolved in 200 µL of BBMT medium. After 29 h of incubation at 37°, the infected cells are harvested by first freezing the plate at -80°, followed by thawing. The cells in each well are scraped off the surface of the well with the help of the melting ice fragments. After complete thawing, the cell suspensions are collected and each well is rinsed with 150 µL of BBMT medium. The viral sample (suspension plus washing) is sonicated gently for 4 min at 4°. Cell debris are removed by centrifugation (1000 times gravity for 10 minutes at 4°). The supernatant is collected and stored at -80° until determination of viral titer.
Viral titration was performed by a modification of the colorimetric assay method of M. Langlois et al., Journal of Biological Standardization, 14, 201 (1986).
More specifically, in a similar manner as described above, BHK-21/C13 cells are trypsinized and transferred to fresh media in a 96 well microtiter plate to give 20,000 cells in 100 µL of media per well. The cells in the prepared plate are incubated at 37° for 2 h. During that time, the viral sample is thawed and sonicated gently for 15 seconds, and log dilutions of the sample are prepared (1/5 sequential: 50 µL of the sample plus 200 µL of BBMT medium, sequential dilutions being done with a multichannel pipette.
On completion of the above 2 hour incubation of the BHK-21/C13 cells, the media is replaced with alpha-MEM medium supplemented with 3% (v/v) FBS. The cells are now ready to be infected with the various sample dilutions of virus. Aliquots (50 µL) of the various dilutions are transferred into the appropriate wells of the plate. The resulting infected cells are incubated for 2 days at 37°. Then 50 µL of a 0.15% (v/v) solution of neutral red dye in Hank's Balanced Salt Solution (pH 7.3, Gibco Canada Inc.) is added to each well. The prepared plate is incubated for 45 min at 37°. Medium from each well is then aspirated and the cells are washed once with 200 µL of Hank's Balanced Salt Solution. […]

[1] = biological target: T1, HSV-1 ribonucleotide reductase (Human herpesvirus 1, UniProt P08543); assay: Inhibition of Herpes Simplex Virus (HSV-1) ribonucleotide reductase; format: biochemical
T1 construct: HSV-1 ribonucleotide reductase (partially purified) was obtained from quiescent BHK-21/C13 cells infected with strain F HSV-1 virus; made in house; host or cells: quiescent BHK-21/C13 cells infected with HSV-1 strain F (virus-encoded enzyme, partially purified)
T1 sequence (P08543 whole entry): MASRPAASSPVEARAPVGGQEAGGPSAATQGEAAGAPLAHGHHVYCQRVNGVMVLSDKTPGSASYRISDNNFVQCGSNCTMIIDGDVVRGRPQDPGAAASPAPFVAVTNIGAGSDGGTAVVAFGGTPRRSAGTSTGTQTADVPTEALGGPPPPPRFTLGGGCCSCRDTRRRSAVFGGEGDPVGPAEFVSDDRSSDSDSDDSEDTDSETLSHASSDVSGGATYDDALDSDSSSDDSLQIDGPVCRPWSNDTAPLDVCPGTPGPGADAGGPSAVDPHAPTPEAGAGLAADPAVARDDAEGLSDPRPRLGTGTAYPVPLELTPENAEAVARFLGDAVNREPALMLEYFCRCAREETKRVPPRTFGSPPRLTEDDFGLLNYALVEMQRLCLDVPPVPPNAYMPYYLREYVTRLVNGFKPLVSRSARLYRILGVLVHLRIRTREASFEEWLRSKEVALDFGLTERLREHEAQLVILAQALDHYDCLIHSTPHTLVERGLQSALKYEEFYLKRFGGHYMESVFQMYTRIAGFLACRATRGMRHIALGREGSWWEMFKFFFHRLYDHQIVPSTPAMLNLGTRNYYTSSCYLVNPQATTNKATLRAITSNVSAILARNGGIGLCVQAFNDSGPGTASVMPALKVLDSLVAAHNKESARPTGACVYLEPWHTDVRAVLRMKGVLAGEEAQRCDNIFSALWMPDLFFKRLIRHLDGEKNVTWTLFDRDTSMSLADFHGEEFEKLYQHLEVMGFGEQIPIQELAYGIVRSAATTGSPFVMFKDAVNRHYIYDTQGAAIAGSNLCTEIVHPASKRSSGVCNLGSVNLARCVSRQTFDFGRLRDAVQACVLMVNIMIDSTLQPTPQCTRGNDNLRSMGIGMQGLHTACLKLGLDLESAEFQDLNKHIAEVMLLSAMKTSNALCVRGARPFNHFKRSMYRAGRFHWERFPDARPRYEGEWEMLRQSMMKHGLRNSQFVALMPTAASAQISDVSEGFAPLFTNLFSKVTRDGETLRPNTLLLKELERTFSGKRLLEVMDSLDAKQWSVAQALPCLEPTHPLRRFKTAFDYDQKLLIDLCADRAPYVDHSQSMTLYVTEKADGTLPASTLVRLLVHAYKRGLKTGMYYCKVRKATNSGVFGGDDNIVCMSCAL
Text: Inhibition of Herpes Simplex Virus (HSV-1) Ribonucleotide Reductase
• a) Preparation of Enzyme HSV-1 ribonucleotide reductase (partially purified) was obtained from quiescent BHK-21/C13 cells infected with strain F HSV-1 virus at 10 plaque forming units/cell as described by E.A. Cohen et al., J. Gen. Virol., 66, 733 (1985). • b) Assay and Results for Exemplified Peptides By following the procedure described by P. Gaudreau et al., J. Biol, Chem., 262, 12413 (1987), the assay results listed in the following Table I were obtained. The assay result for each exemplified compound of formula 1 is expressed as the concentration of the compound producing 50% of the maximal inhibition (IC50) of enzyme activity. The number of units of the enzyme preparation used in each assay was constant, based on the specific activity of the enzyme preparation. The results are relative to the activity obtained in control experiments without the test compound and represent the mean of four assays that varied less than 10% with each other.

[2] = Human alphaherpesvirus 2, BHK21 (C13), 29 h, Table II, BHK-21/C13 cells, HSV-2 strain HG-52, 0.02 PFU/cell, 29 h incubation, read-out: EC50
[3] = Human alphaherpesvirus 2, Table IV, cell culture assay of example 11, read-out: EC50
[4] = Table I, partially purified enzyme from BHK-21/C13 cells infected with strain F HSV-1, mean of four assays
[5] = Human alphaherpesvirus 2, BHK21 (C13), 29 h

CCCC1(NC(=O)N[C@H](C(=O)C[C@@H](CC(=O)C(C)(C)C)C(=O)N[C@H](C(=O)NCC(C)(C)C)C2(C(=O)O)CCCC2)C(C)(C)C)CCCC1 [(1-propylcyclopentyl)aminocarbonyl-Tbg-CH2-(R)-CH(CH2C(O)CMe3)C(O)-Asp(cyPn)-NHCH2CMe3]
EC50 (HSV-2; [2]): 40 µM

C=CCC(CC=C)NC(=O)NC(C(=O)CC(CC(=O)C(C)(C)C)C(=O)NC(C(=O)NCC(C)(C)C)C1(C(=O)O)CCCC1)C(C)(C)C [(CH2=CHCH2)2-CHNHC(O) / NHCH2CMe3, (CH2=CHCH2)2-CHNHC(O)-Tbg-CH2-(R)-CH(CH2C(O)CMe3)C(O)-Asp(cyPn)-NHCH2CMe3]
IC50 ([1]; Table IV, assay of example 10): 370 nM | EC50 (HSV-2; [3]): 100 µM

C=CCC(CC=C)NC(=O)NC(C(=O)CC(CC(=O)C(C)(C)C)C(=O)NC(C(=O)NC(C)C(C)(C)C)C1(C(=O)O)CCCC1)C(C)(C)C [(CH2=CHCH2)2-CHNHC(O)-Tbg-CH2-(R)-CH(CH2C(O)CMe3)C(O)-Asp(cyPn)-NH-(R)-CH(Me)CMe3]
IC50 ([1]; Table IV, assay of example 10): 320 nM | EC50 (HSV-2; [3]): 48 µM

CCCCC(CC)NC(=O)NC(C(=O)CC(CC(=O)C(C)(C)C)C(=O)NC(C(=O)NCC(C)(C)C)C1(C(=O)O)CCCC1)C(C)(C)C [(R,S)-EtBuCH-NHC(O) / NHCH2CMe3, (R,S)-EtBuCH-NHC(O)-Tbg-CH2-(R)-CH(CH2C(O)CMe3)C(O)-Asp(cyPn)-NHCH2CMe3]
IC50 ([1]; Table IV, assay of example 10): 260 nM | EC50 (HSV-2; [3]): 35 µM

CCC(CC)NC(=O)NC(C(=O)CC(CC(=O)C(C)(C)C)C(=O)NC(C(=O)NC(CC(C)(C)C)C(N)=O)C1(C(=O)O)CCCC1)C(C)(C)C [Et2CHNHC(O)-Tbg-CH2-(R)-CH(CH2C(O)-CMe3)C(O)-Asp(cyPn)-γMeLeu-NH2]
IC50 [1, 4]: 220 nM

CCC(CC)NC(=O)NC(C(=O)CC(CC(=O)C(C)(C)C)C(=O)NC(C(=O)NC(CC(C)(C)C)C(=O)O)C1(C(=O)O)CCCC1)C(C)(C)C [Et2CHNHC(O)-Tbg-CH2-(R)-CH(CH2C(O)-CMe3)C(O)-Asp(cyPn)-γMeLeu-OH]
IC50 [1, 4]: 120 nM

CCC(CC)NC(=O)NC(C(=O)CC(CC(=O)C(C)(C)C)C(=O)NC(C(=O)NCC(C)(C)C)C(C)C(=O)O)C(C)(C)C [Et2CHNHC(O)-Tbg-CH2-(R)-CH(CH2C(O)-CMe3)C(O)-Asp{(R)-Me}-NHCH2CMe3]
IC50 [1, 4]: 200 nM

CCCC(CC)(CCC)NC(=O)N[C@H](C(=O)C[C@@H](CC(=O)C(C)(C)C)C(=O)N[C@H](C(=O)NCC(C)(C)C)C1(C(=O)O)CCCC1)C(C)(C)C [EtPr2CNHC(O) / NHCH2CMe3, EtPr2CNHC(O)-Tbg-CH2-(R)-CH(CH2C(O)CMe3)C(O)-Asp(cyPn)-NHCH2CMe3]
EC50 (HSV-2; [3]): 16 µM

CC(C)C(C(=O)NC(C(=O)CC(CC(=O)C(C)(C)C)C(=O)NC(C(=O)NCC(C)(C)C)C1(C(=O)O)CCCC1)C(C)(C)C)N(C)C(=O)CCc1ccccc1 [PhCH2CH2C(O)-(N-Me)Val-Tbg-CH2-(R)-CH(CH2C(O)CMe3)C(O)-Asp(cyPn)-NHCH2CMe3]
IC50 [1, 4]: 330 nM

CC(C)[C@@H](C(=O)N[C@H](C(=O)C[C@@H](CC(=O)C(C)(C)C)C(=O)N[C@H](C(=O)N[C@@H](CC(C)(C)C)C(N)=O)C1(C(=O)O)CCCC1)C(C)(C)C)N(C)C(=O)CCc1ccccc1 [PhCH2CH2C(O)-(N-Me)Val-Tbg-CH2-(R)-CH(CH2C(O)CMe3)C(O)-Asp(cyPn)-γMeLeu-NH2]
EC50 (HSV-2; [5]): 60 µM

CC(C)[C@@H](C(=O)N[C@H](C(=O)C[C@@H](CC(=O)C(C)(C)C)C(=O)N[C@H](C(=O)N[C@@H](CC(C)(C)C)C(=O)O)C1(C(=O)O)CCCC1)C(C)(C)C)N(C)C(=O)CCc1ccccc1 [PhCH2CH2C(O)-(N-Me)Val-Tbg-CH2-(R)-CH(CH2C(O)CMe3)C(O)-Asp(cyPn)-γMeLeu-OH]
EC50 (HSV-2; [5]): 65 µM

CC(C)C(C(=O)NC(C(=O)CC(CC(=O)C(C)(C)C)C(=O)NC(C(=O)NCC(C)(C)C)C(C)C(=O)O)C(C)(C)C)N(C)C(=O)CCc1ccccc1 [PhCH2CH2C(O)-(N-Me)Val-Tbg-CH2-(R)-CH(CH2C(O)CMe3)C(O)-Asp{(R)-Me}-NHCH2CMe3]
IC50 [1, 4]: 330 nM

CC(C)C(C(=O)NC(C(=O)CC(CC(=O)C1CCCC1)C(=O)NC(C(=O)NCC(C)(C)C)C1(C(=O)O)CCCC1)C(C)(C)C)N(C)C(=O)CCc1ccccc1 [PhCH2CH2C(O)-(N-Me)Val-Tbg-CH2-(R)-CH{CH2C(O)-(cyclopentyl)}C(O)-Asp-(cyPn)-NHCH2CMe3]
IC50 [1, 4]: 320 nM

CCCC(CCC)NC(=O)NC(C(=O)CC(CC(=O)C(C)(C)C)C(=O)NC(C(=O)NC1CCCCC1C)C1(C(=O)O)CCCC1)C(C)(C)C [Pr2CHNHC(O) / trans-NH-(2-methyl-cyclohexyl)] [Pr2CHNHC(O)-Tbg-CH2-(R)-CH(CH2C(O)CMe3)C(O)-Asp(cyPn)-trans-NH-(2-methyl-cyclohexyl)]
EC50 (HSV-2; Table IV, cell culture assay of example 11, read-out: EC50): 60 µM

CCCC(CCC)NC(=O)NC(C(=O)CC(CC(=O)C(C)(C)C)C(=O)NC(C(=O)NC(CC(C)(C)C)C(=O)O)C1(C(=O)O)CCCC1)C(C)(C)C [Pr2CHNHC(O)-Tbg-CH2-(R)-CH(CH2C(O)-CMe3)C(O)-Asp(cyPn)-γMeLeu-OH]
IC50 [1, 4]: 150 nM

CCCC(CCC)NC(=O)NC(C(=O)CC(CC(=O)C(C)(C)C)C(=O)NC(C(=O)NC1CCCCC1C)C1(C(=O)O)CCCC1)C(C)(C)C [Pr2CHNHC(O)-Tbg-CH2-(R)-CH(CH2C(O)CMe3)C(O)-Asp(cyPn)-trans-NH-(2-methyl-cyclohexyl)]
IC50 ([1]; Table IV, assay of example 10): 690 nM

CCCC(CCC)NC(=O)N[C@H](C(=O)C[C@@H](CC(=O)C1CCCC1)C(=O)N[C@H](C(=O)NCC(C)(C)C)C1(C(=O)O)CCCC1)C(C)(C)C [Pr2CHNHC(O)-Tbg-CH2-(R)-CH{CH2C(O)(cyclopentyl)}C(O)-Asp(cyPn)-NHCH2CMe3]
EC50 (HSV-2; [2]): 30 µM

CC(C)[C@@H](C(=O)N[C@H](C(=O)C[C@@H](CC(=O)C(C)(C)C)C(=O)N[C@H](C(=O)N[C@H](CO)CC(C)(C)C)C1(C(=O)O)CCCC1)C(C)(C)C)N(C)C(=O)CCc1ccccc1 [Title Compound of Example 6, PhCH2CH2C(O)-(N-Me)Val-Tbg-CH2(R)-CH(CH2C(O)CMe3)C(O)-Asp(cyPn)-γMeLeucinol]
EC50 (HSV-2; Human alphaherpesvirus 2, BHK21 (C13)): 19 µM | EC50 (HSV-2; [5]): 15 µM

CCC(CC)NC(=O)NC(C(=O)CC(CC(=O)C(C)(C)C)C(=O)NC(C(=O)NC(CO)CC(C)(C)C)C1(C(=O)O)CCCC1)C(C)(C)C [Title Compound of Example 7, Et2CHNHC(O)-Tbg-CH2-(R)-CH(CH2C(O)CMe3)CO-Asp(cyPn)-γMeLeucinol]
IC50 [1, 4]: 150 nM

Nc1nc2c(ncn2COCCO)c(=O)[nH]1 [acyclovir, reference compound]
EC50 (HSV-2; Human alphaherpesvirus 2, BHK21 (C13), Table III, agent alone, BHK-21/C13 cells, HSV-2 strain HG-52, read-out: EC50): 3.5 µM | action of the combination of acyclovir and the peptide of formula 1 (HSV-2; combination of acyclovir with the title peptide of example 6, EC50's lower than acyclovir alone, isobole method, Figure 1): synergistic action

Pr2CHNHC(O)-Tbg-CH2-(R)-CH-(CH2C(O)CH2CMe3)C(O)-Asp(cyPn)-Leu-OH
EC50 (HSV-2; Table V, cell culture assay of example 11, read-out: EC50): 80 µM
